{
  "source": "patent US20040025201A1",
  "about": "“True breeding transgenics from plants heterozygous for transgene insertions” (New Zealand Institute for Crop & Food Research Lim, priority 1995, published 2004)",
  "format_in_all_cases": "in vivo",
  "key": {"[1]": {"test_system": "Brassica napus (30b) mutant", "assay": "Experiment 1: segregation of chlorsulfuron resistance in selfed progeny of sprayed heterozygous plants", "excerpt": "A homozygous line of a Brassica napus (30b) mutant, with a single gene conferring sulfonylurea resistance (Conner et al., Proceedings of the 47th New Zealand Plant Protection Conference, 173-177 (1994)), was used in this study. Brassica napus are self-fertile, with about 80% of the seed normally arising from self-pollination, although a greater degree of cross-pollination may occur when insect pollinators are abundant (Downey et al., Rapeseed and Mustard, Chapter 35:495-509, In Hybridization of Crop Plants, supra). B. napus is commonly referred to as canola, rape and oilseed rape.\nThe 30b mutant line was hybridized to a herbicide-sensitive genotype to generate a seed population heterozygous for sulfonylurea resistance. These heterozygous seeds were sown, repotted into individual pots in a greenhouse, and individuals were randomly divided into 3 populations:\n(ii) plants sprayed once with chlorsulfuron (a sulfonylurea herbicide) at a rate of 3 mg/liter until runoff, just as the plants were beginning to bolt (development of flowering stems) (19 plants).\n(iii) plants sprayed with chlorsulfuron at a rate of 3 mg./liter until runoff, just as the plants were beginning to bolt, and then every 2 weeks until initiation of plant senescence (18 plants).\n(§1) The heterozygous plants were allowed to self pollinate and resulting seeds harvested at maturity. This next generation was screened for chlorsulfuron resistance as previously described (Conner et al. (1994). Briefly, this involved surface sterilizing the seeds (10-12 minutes in 1% sodium hypochlorite, plus a drop of Tween 20), followed by 2-3 rinses in sterile water, then sowing the seeds in vitro onto the surface of a medium consisting of half strength MS salts at pH 5.8 (Murashige and Skoog Physiologia Plantarum 15:473-497 (1962)) supplemented with 10 ug/liter chlorsulfuron and 6.5 g/liter agar. Seeds were then germinated at 24-26° C. under cool white fluorescent lights (80-100) umol/m2/sec; 16 h light: 8 h darkness daily).\n(§2) Seeds generally germinated after 3-4 days and were scored for chlorsulfuron resistance 5-7 days after sowing. Resistant seedlings had long healthy roots (4-6 cm) that penetrated into the gelled medium, with healthy green cotyledons."}, "[2]": {"test_system": "Transgenic potato plants (Solanum tuberosum cv. Iwa), line SCI1", "assay": "Experiment 4: segregation of GUS activity in selfed progeny of sprayed transgenic potato", "conditions": "sprayed once three weeks after planting, 20 g/ha", "excerpt": "The Solanum tuberosum, subspecies tuberosum, plant line used: SCI1 (Conner et al., Journal of Cellular Biochemistry 13D: 333 (1989)). This line of potato is transformed with the T-DNA from pKIWI100 and expresses transgenes conferring kanamycin resistance, β-glucuronidase (GUS) activity, and chlorsulfuron resistance. The cultivated varieties of potato grown in the United States and Europe are predominantly tetraploid (i.e., four complete sets of chromosomes) (Plaisted, R. L., Potato, Chapter 34:483-494, In Hybridization of Crop Plants, supra; Allard, pg. 6, supra.\nPlants of the original transgenic line were vegetatively propagated via tubers which were planted in a containment greenhouse. Soon after sprouting (three weeks after planting) the plants were sprayed once with either water of chlorsulfuron at the equivalent rate of 20 g/ha Plants were self pollinated at flowering and berries harvested 15 weeks after spraying. Seeds were extracted and germinated, and the progeny histochemically screened for GUS activity."}, "[3]": {"test_system": "Brassica napus plants heterozygous for the chlorsulfuron-resistant mutation (wt×30b)", "assay": "Experiment 5 part (b): back-crossed progeny ((wt×30b)×wt) of sprayed ovule parent", "method": "as §1, §2\n(§3) To further explore the underlying reasons accounting for the induced skewed segregation, additional crosses using the 30b mutant were performed. At specified times the plants were sprayed with chlorsulfuron and the progeny evaluated as described in Experiment 1 above.\nPart (b). Plants heterozygous for the chlorsulfuron-resistant mutation (wt×30b) were either not sprayed, or sprayed with chlorsulfuron at varying times during development. The back crossed-progeny ((wt×30b)×wt), resulting from pollen from non-sprayed wildtype plants were screened for chlorsulfuron resistance as described in Experiment 1."}, "[4]": {"test_system": "Brassica napus mutant (19c)", "assay": "Experiment 2: segregation of chlorsulfuron resistance in selfed progeny of sprayed heterozygous plants", "method": "as §1, §2\nA further chlorsulfuron-resistant Brassica napus mutant (19c), of independent origin to mutant 30b (Conner et al., Proceedings of the 47th New Zealand Plant Protection Conference, 173-177 (1994)) was subjected to identical experiments described above for mutant 30b."}, "[5]": {"test_system": "Brassica napus plants heterozygous for the chlorsulfuron-resistant mutation (wt×30b)", "assay": "Experiment 5 part (d): back-crossed progeny ((wt×30b)×30b) of sprayed female parent", "conditions": "heterozygous female parent sprayed just prior to bolting", "method": "as §1, §2, §3\nPart (d). Plants heterozygous for the chlorsulfuron-resistant mutation (wt×30b) were either not sprayed, or sprayed with chlorsulfuron just prior to bolting. […]"}, "[6]": {"test_system": "Brassica napus plants heterozygous for the chlorsulfuron-resistant mutation (wt×30b)", "assay": "Experiment 5 part (c): back-crossed progeny (wt×(wt×30b)) of sprayed pollen parent", "conditions": "pollen parent sprayed just prior to bolting", "method": "as §1, §2, §3\nPart (c). Plants heterozygous for the chlorsulfuron-resistant mutation (wt×30b) were either not sprayed, or sprayed with chlorsulfuron just prior to bolting. The pollen from these plants was back-crossed to non-sprayed wildtype plants, and the resulting progeny (wt×(wt×30b)) were screened for chlorsulfuron resistance as described in Experiment 1."}, "[7]": {"test_system": "Transgenic forage brassica plants (Brassica napus cv. Giant), line G/HR10", "assay": "Experiment 3: segregation of GUS activity in selfed progeny of sprayed transgenic forage brassica", "conditions": "sprayed once prior to bolting, 20 g/ha", "excerpt": "Plant line used: G/HR10 (Christey and Sinclair, Plant Science: 87 161-169 (1992)). This line contains a single insertion of the T-DNA from pKIWI110 and expresses transgenes conferring kanamycin resistance, β-glucuronidase (GUS) activity, and chlorsulfuron resistance.\nPlants of the original transgenic line were cloned in vitro, then transferred to a containment greenhouse. […] The plants were allowed to self-pollinate and the seeds were harvested five months after spraying. The progeny germinated and histochemically screened for GUS activity."}, "[8]": {"test_system": "Brassica napus plants heterozygous for the chlorsulfuron-resistant mutation (wt×30b)", "assay": "Experiment 5 part (a): self-pollinated seed of heterozygous plants sprayed at varying times", "method": "as §1, §2, §3\nPart (a). Plants heterozygous for the chlorsulfuron-resistant mutation (wt×30b) were either not sprayed, or sprayed with chlorsulfuron at varying times during development. The self-pollinated seed was harvested, and the germinated seedlings were screened for chlorsulfuron resistance."}, "[9]": {"conditions": "total of 18 plants repeatedly sprayed"}, "[10]": {"conditions": "total of 19 plants sprayed once"}, "[11]": {"conditions": "sprayed 2 weeks after pods full size"}, "[12]": {"conditions": "sprayed at pods reaching full size"}, "[13]": {"conditions": "sprayed at seedlings (2-3 leaves)"}},
  "data": [
    {"smiles": "COc1nc(C)nc(NC(=O)NS(=O)(=O)c2ccccc2Cl)n1", "note": "[chlorsulfuron]", "values": [
      {"measurement": "Resistance of progeny of sprayed heterozygous plants (in words)", "setting": "[1]; both spray regimes", "value": "virtually all the progeny obtained were resistant to chlorsulfuron"},
      {"measurement": "Number of herbicide-resistant progeny, Total", "setting": "[1]; [9]", "value": 728},
      {"measurement": "Number of herbicide-sensitive progeny, Total", "setting": "[1]; [9]", "value": 2},
      {"measurement": "Number of herbicide-resistant progeny, Total", "setting": "[1]; [10]", "value": 1588},
      {"measurement": "Number of herbicide-sensitive progeny, Total", "setting": "[1]; [10]", "value": 17},
      {"measurement": "GUS-negative progeny", "setting": "[2]", "value": 12},
      {"measurement": "GUS-positive progeny", "setting": "[2]", "value": 136},
      {"measurement": "Number of herbicide-resistant seedlings", "setting": "[3]; [11]", "value": 104},
      {"measurement": "Number of herbicide-sensitive seedlings", "setting": "[3]; [11]", "value": 37},
      {"measurement": "Number of seeds per pod", "setting": "[3]; [11]", "value": 4.3},
      {"measurement": "Number of herbicide-resistant seedlings", "setting": "[3]; [12]", "value": 127},
      {"measurement": "Number of herbicide-sensitive seedlings", "setting": "[3]; [12]", "value": 28},
      {"measurement": "Number of seeds per pod", "setting": "[3]; [12]", "value": 4.0},
      {"measurement": "Number of herbicide-resistant seedlings", "setting": "[3]; sprayed just prior to bolting", "value": 134},
      {"measurement": "Number of herbicide-sensitive seedlings", "setting": "[3]; sprayed just prior to bolting", "value": 5},
      {"measurement": "Number of seeds per pod", "setting": "[3]; sprayed just prior to bolting", "value": 3.4},
      {"measurement": "Number of herbicide-resistant seedlings", "setting": "[4]; repeated fortnightly sprays from bolting", "value": 96},
      {"measurement": "Number of herbicide-resistant seedlings", "setting": "[4]; sprayed just prior to bolting", "value": 398},
      {"measurement": "Number of herbicide-sensitive seedlings", "setting": "[4]; sprayed just prior to bolting", "value": 31},
      {"measurement": "Number herbicide-sensitive seedlings", "setting": "[5]", "value": 0},
      {"measurement": "Number of herbicide-resistant seedlings", "setting": "[5]", "value": 111},
      {"measurement": "Number of herbicide-resistant seedlings", "setting": "[6]", "value": 381},
      {"measurement": "Number of herbicide-sensitive seedlings", "setting": "[6]", "value": 112},
      {"measurement": "Number of seeds per pod", "setting": "[6]", "value": 6.3},
      {"measurement": "GUS-negative progeny", "setting": "[7]; Population A", "value": 13},
      {"measurement": "GUS-positive progeny", "setting": "[7]; Population A", "value": 78},
      {"measurement": "GUS-negative progeny", "setting": "[7]; Population B", "value": 16},
      {"measurement": "GUS-positive progeny", "setting": "[7]; Population B", "value": 96},
      {"measurement": "Number of herbicide-resistant seedlings", "setting": "[8]; [11]", "value": 184},
      {"measurement": "Number of herbicide-sensitive seedlings", "setting": "[8]; [11]", "value": 26},
      {"measurement": "Number of seeds per pod", "setting": "[8]; [11]", "value": 6.2},
      {"measurement": "Number of herbicide-resistant seedlings", "setting": "[8]; [12]", "value": 160},
      {"measurement": "Number of herbicide-sensitive seedlings", "setting": "[8]; [12]", "value": 16},
      {"measurement": "Number of seeds per pod", "setting": "[8]; [12]", "value": 5.8},
      {"measurement": "Number of herbicide-resistant seedlings", "setting": "[8]; [13]", "value": 440},
      {"measurement": "Number of herbicide-sensitive seedlings", "setting": "[8]; [13]", "value": 11},
      {"measurement": "Number of seeds per pod", "setting": "[8]; [13]", "value": 5.6},
      {"measurement": "Number of herbicide-resistant seedlings", "setting": "[8]; sprayed just prior to bolting", "value": 565},
      {"measurement": "Number of herbicide-sensitive seedlings", "setting": "[8]; sprayed just prior to bolting", "value": 5},
      {"measurement": "Number of seeds per pod", "setting": "[8]; sprayed just prior to bolting", "value": 5.4}
    ]}
  ]
}
